≈ marks a conversion by molar mass, not a printed value.
Key:
[1] = test system: Human herpesvirus 1 (HSV-1); test: microbe, parasite or virus in culture; format: cell-based; conditions: for HSV-1 EC50 / EC50: viral titer TCID50/mL 2.5 × 10^6 in 48 h, NA = no activity in the assayed concentrations; for EC50: Human alphaherpesvirus 1
[2] = test system: Vaccinia virus Western Reserve (VACV-WR); format: cell-based
[3] = test system: Murine encephalomyocarditis virus (EMCV); format: cell-based; conditions: viral titer TCID50/mL 1.0 × 10^6 in 48 h; NA = no activity in the assayed concentrations
[4] = test system: Dengue virus 2 (DENV-2); test: microbe, parasite or virus in culture; format: cell-based; conditions: DENV2, viral titer TCID50/mL 1.0 × 10^4 in 72 h
[5] = test system: respiratory syncytial virus (RSV); conditions: isolated from Markhamia lutea; cited from earlier work
[6] = test system: HSV-1; conditions: cited from earlier work
[7] = test system: HSV-2; conditions: cited from earlier work
[8] = in vitro; conditions: African green monkey
[9] = in vitro; conditions: rhesus monkey

## C[C@@H]1O[C@@H](O[C@@H]2[C@@H](O)[C@H](OCCc3ccc(O)c(O)c3)O[C@H](CO)[C@H]2OC(=O)/C=C/c2ccc(O)c(O)c2)[C@H](O)[C@H](O)[C@H]1O [AP 1, verbascoside]
[1]
  HSV-1 EC50: no effect was observed
[2]
  VACV-WR EC50: not active
[3]
  EMCV EC50: not active
[4]
  EC50: 3.4 ± 0.4 µg/mL (≈ 5.44 µM)
[5]
  RSV EC50: 0.80 µg/mL
[6]
  HSV-1 EC50: 58.0 µg/mL
[6]; previous report
  anti-herpes activity: had not shown anti-herpes activity
[7]
  HSV-2 EC50: 8.9 µg/mL
[8]
  CC50: > 200 µg/mL
[9]
  CC50: 12.9 ± 1.1 µg/mL (≈ 20.7 µM)

## C[C@H]1[C@H](C)CC[C@]2(C(=O)O)CC[C@]3(C)C(=CC[C@@H]4[C@@]5(C)CC[C@H](O)C(C)(C)[C@@H]5CC[C@]43C)[C@H]12 [AP 3, ursolic acid]
[1]
  EC50: 6.2 ± 0.1 µg/mL (≈ 13.6 µM)
  HSV-1 EC50: low activity
[1]; at concentrations as low 2 μg/mL, Figure 4A
  HSV-1 virus inhibition: 50%
[2]
  VACV-WR EC50: not active
[3]
  EMCV EC50: not active
[4]
  EC50: 3.2 µg/mL (≈ 7.01 µM)
[8]
  CC50: 8.1 ± 0.9 µg/mL (≈ 17.7 µM)
[9]
  CC50: 9.9 ± 1.3 µg/mL (≈ 21.7 µM)

## Nc1nc2c(ncn2COCCO)c(=O)[nH]1 [Acyclovir, reference compound]
[1]
  EC50: 40 µg/mL (≈ 178 µM)

From publication PMC6269977, “Chemistry and Antiviral Activity of Arrabidaea pulchra (Bignoniaceae)” (Molecules, 2013)
